The conditions of this series: a range is the spread between reports.

The structures appear in SMILES notation.

What is called melting point is the temperature of the solid-liquid transition. As for `CCCCCCCCCCCC(=O)OC`, the melting point lay within 5 to 5.2 °C.

In turn, `CC(=O)c1cccc(N)c1` registered a melting point of 96 to 98.5 °C.

`C=C(Cl)C(=O)O` displayed a melting point of 65 to 66 °C.

Molecule `O=c1c(O)c(-c2ccccc2)oc2cc(O)cc(O)c12` had a melting point of 214 to 215 °C.

For `Nc1ccc2c(c1)CCC2`, the melting point lay in the range of 35 to 37.5 °C.

Regarding `C=CCCCCCC`, the melting point is -102 °C.

As to `CCCCCSCCCCC`, the melting point is -51.3 to -51 °C.

`Nc1c(Cl)cc([N+](=O)[O-])cc1Cl` displayed a melting point of 189 to 191 °C.

Molecule `CC(=O)c1c[nH]c2ccccc12` displayed a melting point of 189 to 194 °C.

In the case of `Clc1cc(Cl)c(Cl)nc1Cl`, the melting point lay within 90.5 to 91 °C.

The molecule `Ic1ccccc1` displayed a melting point of -31.3 to -31 °C.

`c1ccc(-c2nnc(-c3ccccn3)nc2-c2ccccc2)cc1` registered a melting point of 191 to 192 °C.

`Nc1ccc([N+](=O)[O-])cc1N` came in with a melting point of 199 to 201 °C.

Consider `OCc1ccccc1Cl`, for which the melting point lay in the range of 70 to 73 °C.

Consider `Cc1ccc(N)cc1Cl`, for which the melting point was in the range of 23 to 26 °C.

`CCCCCCCCCS` gave a melting point of -20.1 to -20 °C.

Regarding `COc1cc(Cl)ccc1C(=O)O`, the melting point fell in the range of 146 to 147 °C.

Turning to `COc1ccc(C(N)=O)cc1`, the melting point was in the range of 165 to 166 °C.

The molecule `Clc1nc(Cl)c(Cl)c(Cl)c1Cl` came in with a melting point of 125 to 126 °C.

`O=[N+]([O-])c1cc(S(=O)(=O)c2ccc(F)c([N+](=O)[O-])c2)ccc1F` showed a melting point of 194 °C.

The molecule `COc1ccc(OC)c(C=O)c1` gave a melting point of 49 to 52 °C.

With `Cc1ccc(N(CC2=NCCN2)c2cccc(O)c2)cc1`, the melting point is 174 to 175 °C.

The molecule `Nc1cccnc1` gave a melting point of 61 to 64.5 °C.

The molecule `Oc1ccc(-c2ccccc2)cc1` gave a melting point of 165 to 167 °C.

Turning to `COc1cc(C=CC(=O)c2ccccc2O)ccc1O`, the melting point is 126 to 129 °C.

Take `c1ccc2c(c1)sc1ccccc12`: the melting point was 97 to 99 °C.

Regarding `O=C(O)c1ccsc1`, the melting point lay in the range of 138 to 139 °C.

`FC(F)(F)C(F)(F)C(F)(F)C(F)(F)C(F)(F)C(F)(F)C(F)(F)C(F)(F)F` showed a melting point of -25 to -23.2 °C.

Turning to `O=P(O)(O)CP(=O)(O)O`, the melting point lay in the range of 200 to 203 °C.

As to `O=C1OC2(c3ccc(O)cc3Oc3cc(O)ccc32)c2ccccc21`, the melting point lay within 315 to 320 °C.

For `O=C(CO)c1ccccc1`, the melting point lay within 4.5 to 6 °C.

`Brc1ccccc1-c1ccccc1` showed a melting point of 1 to 2 °C.

Turning to `O=C(O)c1cccc(F)c1F`, the melting point lay in the range of 162 to 164 °C.

Molecule `NNC=O` returned a melting point of 55 to 57 °C.

Turning to `Cc1c[nH]c2ccccc12`, the melting point turned out to be 95 °C.

`CC(=O)Oc1ccc(C(C)=O)cc1` came in with a melting point of 53 to 54 °C.

Turning to `CC=C(C)C(C)C`, the melting point is -124 °C.

`N#Cc1ccc2ccccc2c1`: the melting point fell in the range of 65 to 66 °C.

For `O=P(O)(O)CCCl`, the melting point fell in the range of 70 to 74.5 °C.

`Cc1cccc(C)n1`: the melting point is -7 to -6 °C.

Consider `Cc1ccc2cccnc2c1`, for which the melting point lay in the range of 36.5 to 39 °C.

The molecule `COc1ccc(C=O)cc1OC` came in with a melting point of 43 to 44 °C.

In turn, `BrCCCCBr` gave a melting point of -20 to -16.5 °C.

`O=Cc1ccc(O)cc1` gave a melting point of 117 to 118 °C.

As to `COc1cc(Cc2cnc(N)nc2N)cc(OC)c1OC`, the melting point is 200 to 201 °C.

On to `CCC(C)C`, for which the melting point was -160 °C.

The molecule `ClCBr` had a melting point of -88 to -87.9 °C.

In turn, `O=C1C=CC(=O)N1` yielded a melting point of 92 to 94 °C.

In turn, `CC(=O)Oc1ccc(C(=O)O)cc1` gave a melting point of 192 to 194 °C.

For `CCCCCCCCN`, the melting point is -1 to 0 °C.

For the molecule `Nc1cccc(Br)c1`, the melting point lay within 16 to 18.5 °C.

Consider `CC(C)c1ccc(CO)cc1`, for which the melting point was in the range of 27 to 28 °C.

For the molecule `C=CC(=O)OC`, the melting point was -76.5 to -75 °C.

In turn, `C#CCCCCCCCCCCCCCCCC` showed a melting point of 22.5 to 27 °C.

`N#Cc1ccc(N)cc1`: the melting point is 84 to 85 °C.

Regarding `CC(C)C(C)(C)C(C)(C)C`, the melting point was -36.4 to -36 °C.

In turn, `NCCCN1CCN(CCCN)CC1` registered a melting point of 14 to 15 °C.

As to `O=C(O)c1cc2ccccc2o1`, the melting point fell in the range of 192 to 194 °C.

In turn, `Cc1ccc[nH]c1=O` came in with a melting point of 138 to 142 °C.

`CCOc1ccccc1` displayed a melting point of -30 to -29.5 °C.

Consider `C[Si](C)(C)C`, for which the melting point was -100 to -99 °C.

As for `O=C(Cc1ccccc1)Cc1ccccc1`, the melting point was 32 to 35 °C.

As for `CC(C)CCC(C)(C)C`, the melting point was -106 °C.

For `O=C(c1ccc(Cl)cc1)c1ccc(Cl)cc1`, the melting point lay within 145 to 148 °C.

`Cc1ccccc1C(N)=O`: the melting point lay within 142 to 147 °C.

Turning to `O=C(O)c1c(Cl)cccc1Cl`, the melting point lay in the range of 143 to 144 °C.

Molecule `c1ccc(-c2ccccc2)cc1` returned a melting point of 69 to 71 °C.

Molecule `CC(C)(C)Cl` came in with a melting point of -26 to -25 °C.

Molecule `CCOC(=O)CC#N` showed a melting point of -23 to -22 °C.

`CCc1nnc(N)s1` showed a melting point of 200 to 201 °C.

In the case of `COc1ccc(CC(=O)O)cc1OC`, the melting point lay in the range of 97 to 98 °C.

Regarding `O=C(O)c1ccc(CBr)cc1`, the melting point was in the range of 225 to 230 °C.

In turn, `CCCCCCCBr` registered a melting point of -58 to -56 °C.

Regarding `Cc1cccc(C)c1Cl`, the melting point is -36 to -35 °C.

For the molecule `NC(=O)c1cccc(N)c1`, the melting point is 113 to 116 °C.

Molecule `CCOc1ccc(O)cc1` yielded a melting point of 66 to 66.5 °C.

The molecule `CCC(C)N` (stereo not drawn) came in with a melting point of -105 to -104 °C.

For `N#Cc1ccc(Cl)c([N+](=O)[O-])c1`, the melting point was in the range of 99 to 100 °C.

In the case of `NS(=O)(=O)c1ccc([N+](=O)[O-])cc1`, the melting point was 179 to 180 °C.

On to `C=CC(=O)NC(C)(C)C`, for which the melting point is 128 to 129 °C.

`C=CC#N`: the melting point is -84 to -83.5 °C.

Consider `Oc1ccc2c(c1)CCC2`, for which the melting point was in the range of 53 to 58 °C.

`O=C(O)C(c1ccccc1)c1ccccc1` had a melting point of 146 to 147 °C.

As to `Cc1ccc(N)cc1F`, the melting point was 31 to 33 °C.

In turn, `O=[N+]([O-])C(Br)(CO)CO` returned a melting point of 127 to 132 °C.

Consider `CCCCCO`, for which the melting point was -79 to -78 °C.

`c1ccc(-c2ccccn2)nc1`: the melting point was in the range of 70 to 72 °C.

As for `CCC(C)(C)C(C)(C)C`, the melting point is -10 to -9.8 °C.

Turning to `CCOc1cccc(OCC)c1`, the melting point was in the range of 11 to 12.4 °C.

On to `O=c1[nH]c(=O)n(C2CC(O)C(CO)O2)cc1F` (stereo not drawn), for which the melting point stood at 150 °C.

As for `O=S(=O)(Cl)c1cccs1`, the melting point fell in the range of 28 to 30 °C.

In the case of `CCCCOC`, the melting point was -116 to -115 °C.

`CCCOC1CCC2(C)C(CC(=O)C3C2CCC2(C)C(OCCC)CCC32)C1` (stereo not drawn) registered a melting point of 161 to 163 °C.

`CCOC(=O)Cc1c[nH]c2ccccc12` yielded a melting point of 43 to 44.5 °C.

The molecule `CC(=O)c1ccc(O)cc1O` had a melting point of 144 to 146 °C.

`NS(=O)(=O)c1cc(C(=O)O)ccc1Cl` displayed a melting point of 257 to 258 °C.

`O=C(O)Cc1ccccc1`: the melting point is 76 to 79 °C.

Turning to `NC(=O)c1cccnc1`, the melting point turned out to be 130 °C.

`O=C1OC(=O)C2C3C=CC(C3)C12` (stereo not drawn): the melting point is 164 to 166 °C.

In the case of `C(=C\c1ccccc1)/c1ccccc1`, the melting point is 123 to 126 °C.

`O=C1CCCCC1c1ccccc1` (stereo not drawn) came in with a melting point of 57 to 58 °C.

The molecule `Oc1ccc(N=Nc2ccccc2)cc1` came in with a melting point of 154 to 155 °C.

For the molecule `O=C(O)c1c(F)ccc(F)c1F`, the melting point was in the range of 130 to 131 °C.

For `CCCCCCCCO`, the melting point is -16 to -15 °C.

As for `CCCCCCCCCCCCCCCC`, the melting point was 18 to 18.1 °C.

As for `C=CCCCCCCCC`, the melting point was -66.3 to -66 °C.

In turn, `CC(C)(CO)CO` registered a melting point of 125 to 130 °C.

For the molecule `O=C(O)/C=C/c1ccccc1[N+](=O)[O-]`, the melting point lay in the range of 244 to 247 °C.

The molecule `CCC(C(C)C)C(C)C` yielded a melting point of -122 °C.

The molecule `Cc1ccc(CN)cc1` showed a melting point of 12 to 12.5 °C.

On to `O=c1c2ccccc2sc2ccccc12`, for which the melting point was in the range of 209 to 212 °C.

`Brc1cnc2ccccc2c1` registered a melting point of 13.3 to 14 °C.

In turn, `CCC(=O)c1ccc(O)cc1O` registered a melting point of 99 to 100 °C.

In turn, `CN(C)c1ccc(C(=O)c2ccccc2)cc1` returned a melting point of 89 to 92.5 °C.

`O=C(O)c1ccc(O)c(Cl)c1` displayed a melting point of 169 to 171 °C.

Turning to `C#CCCCC`, the melting point is -132 °C.

The molecule `Nc1ccncn1` came in with a melting point of 150 to 155 °C.

As to `COC(=O)C1C(OC(=O)c2ccccc2)CC2CCC1N2C` (stereo not drawn), the melting point lay within 93.5 to 98 °C.

In the case of `S=C=Nc1ccc(Br)cc1`, the melting point was in the range of 58 to 60.5 °C.

Regarding `CCCCC(=O)CC`, the melting point was -39 to -37 °C.

With `COc1ccccc1C(=O)c1ccccc1`, the melting point was in the range of 37 to 41 °C.

Take `O=C(c1ccc(O)cc1O)c1ccc(O)cc1O`: the melting point lay within 201 to 202 °C.

In the case of `Brc1ccccc1Br`, the melting point was in the range of 5 to 7.1 °C.

In the case of `Cc1cc(=O)cc(C)o1`, the melting point lay in the range of 132 to 134 °C.

Take `Brc1ccc(-c2ccccc2)cc1`: the melting point is 90 to 91.5 °C.

Consider `CC(C)C(O)C(C)(C)CO` (stereo not drawn), for which the melting point was 51.5 to 52 °C.

`O=C(c1ccccc1)c1ccc(Cl)cc1` gave a melting point of 76 to 77.5 °C.

The molecule `O=S(=O)(c1ccc(Cl)cc1)c1ccc(Cl)cc1` yielded a melting point of 148 to 149 °C.

Molecule `CCCCP(CCCC)CCCC` had a melting point of -65 to -60 °C.

As to `O=C(O)c1ccccc1-c1ccccc1C(=O)O`, the melting point was 229 to 234 °C.

`Oc1ccccc1` displayed a melting point of 40.9 to 42 °C.

`O=c1c(-c2ccc(O)cc2)coc2cc(O)cc(O)c12` displayed a melting point of 300 to 302 °C.

`CC(c1ccccc1)c1ccccc1` had a melting point of -18 to -17.9 °C.

As to `ClCCOCCOCCCl`, the melting point was -32 to -31.5 °C.

In the case of `O=C(O)c1ccc2ccccc2n1`, the melting point fell in the range of 156 to 158 °C.

On to `CCCCCCCCCCCCCCCCCC(C)=O`, for which the melting point lay in the range of 55 to 57 °C.

As for `O=[N+]([O-])c1cccc2ccccc12`, the melting point was in the range of 57 to 62 °C.

Consider `Cc1ccc(C(C)C)cc1O`, for which the melting point lay within 1 to 2 °C.

(Values after a melting point compilation (Tetko et al.).)
